For data set [1], the target named is T1, wild-type nAChR α7 receptors (Homo sapiens, UniProt P36544).
T1 construct: expressed in transfected cells; host or cells: Xenopus laevis oocytes
The experiment in a line: Positive modulation of acetylcholine-induced nAChR α7 currents in Xenopus laevis oocytes (two-electrode voltage clamp). It counts as cell-based. On the procedure: In this example the positive modulation of wild-type nAChR α7 receptors by Compound 4 (i.e. 4-[5-Amino-4-(2,4-dichloro-phenyl)-[1,2,3]triazol-1-ylmethyl]phenol; FIGS. 1A and 1B) was determined using nAChR α7 receptors heterologously expressed in Xenopus laevis oocytes.
The electrical current through the nAChR α7 channel was measured using conventional two-electrode voltage clamp and nAChR α7 currents were activated by applying pulses of agonist-containing solution onto the nAChR α7 expressing oocyte.
In brief, the oocytes were placed in a recording chambers and continuously super-fused with an Oocyte Ringer (OR) solution containing 90 mM NaCl, 2.5 mM KCl, 2.5 mM CaCl2, 1 mM MgCl2 and 5 mM HEPES (pH adjusted to 7.4). The oocytes were clamped at −60 mV and currents were induced by applying 20 s pulses of 100 μM acetylcholine dissolved in OR. The intervals between the acetylcholine applications were 5 minutes, during which the oocytes were washed with OR. The first three applications were control applications to insure a constant response level of 100 μM acetylcholine.
The positive modulation in the presence of Compound 4 was calculated as (test-control)/control*100% and the concentration response curve for this positive modulation was fitted to the sigmoidal logistic equation: I=Imax/(1+(EC50/[compound])^n), where Imax represents the maximal modulation of the control response, EC50 is the concentration causing a half maximal response, and n is the slope coefficient.
Background: In two-electrode clamp one electrode senses voltage and the other passes current.

T1 sequence (P36544 23-502): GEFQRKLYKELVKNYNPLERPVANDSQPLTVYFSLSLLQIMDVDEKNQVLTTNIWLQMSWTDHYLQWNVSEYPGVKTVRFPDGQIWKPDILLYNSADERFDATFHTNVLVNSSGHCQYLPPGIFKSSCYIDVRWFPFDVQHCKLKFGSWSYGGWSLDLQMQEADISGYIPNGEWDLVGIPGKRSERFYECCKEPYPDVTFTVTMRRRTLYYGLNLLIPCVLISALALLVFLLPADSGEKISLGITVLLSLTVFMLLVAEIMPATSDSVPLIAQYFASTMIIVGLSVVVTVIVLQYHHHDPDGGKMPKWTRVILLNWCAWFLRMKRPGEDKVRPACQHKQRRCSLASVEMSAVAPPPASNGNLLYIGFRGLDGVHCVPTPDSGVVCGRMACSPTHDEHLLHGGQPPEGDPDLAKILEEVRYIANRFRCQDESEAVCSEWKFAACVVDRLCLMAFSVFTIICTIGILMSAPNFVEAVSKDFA

`COc1ccc(Cn2nnc(-c3ccc(C(F)(F)F)cc3F)c2N)cc1` [Compound 7, 5-(2-Fluoro-4-trifluoromethyl-phenyl)-3-(4-methoxy-benzyl)-3H-[1,2,3]-triazol-4-ylamine] yielded a melting point of 153.2 to 154.4 °C. For the molecule `Nc1c(-c2ccc(Cl)cc2Cl)nnn1Cc1ccc(S(N)(=O)=O)cc1` [Compound 6, 4-[5-Amino-4-(2,4-dichloro-phenyl)-[1,2,3]-triazol-1-ylmethyl]-benzenesulfonamide], the melting point lay in the range of 204 to 205.6 °C. `Nc1c(-c2ccc(Cl)cc2Cl)nnn1Cc1ccc(O)cc1` [Compound 4, 4-[5-Amino-4-(2,4-dichloro-phenyl)-[1,2,3]triazol-1-ylmethyl]-phenol] came in with a melting point of 172.5 to 174.1 °C. Moreover, the “Imax, maximal modulation of the acetylcholine response” value in data set [1] (100 μM acetylcholine, (test-control)/control*100%, Xenopus laevis oocytes, 0.01-31.6 μM compound) came to 277%. The EC50 in data set [1] (100 μM acetylcholine, nAChR α7 expressed in Xenopus laevis oocytes, clamped at −60 mV, 0.01-31.6 μM compound, read-out: EC50 for positive modulation of acetylcholine responses) came to 1100 nM. In data set [1] (0.01-31.6 μM compound applied 30 s before and during 100 μM acetylcholine), the “effect on acetylcholine-induced current amplitude” value was “robust increase”. As to `COc1ccc(Cn2nnc(-c3ccc(Cl)cc3Cl)c2N)cc1` [Compound 1, 5-(2,4-Dichloro-phenyl)-3-(4-methoxy-benzyl)-3H-[1,2,3]triazol-4-ylamine], the melting point lay in the range of 134.4 to 136.8 °C. Still for that read-out and setting: as for `Nc1c(-c2ccc(C(F)(F)F)cc2F)nnn1Cc1ccc(S(N)(=O)=O)cc1` [Compound 5, 4-[5-Amino-4-(2-fluoro-4-trifluoromethyl-phenyl)-[1,2,3]-triazol-1-ylmethyl]-benzenesulfonamide], the figure is 180.1 to 181.3 °C. `COc1ccc(-c2nnn(Cc3ccc(Cl)cc3Cl)c2N)cc1` [Compound 2, 3-(2,4-Dichloro-benzyl)-5-(4-methoxy-phenyl)-3H-[1,2,3]-triazol-4-ylamine] came in with a melting point of 156.5 to 159 °C.

`Nc1c(-c2ccc(C(F)(F)F)cc2F)nnn1Cc1ccc(O)cc1` [Compound 8, 4-[5-Amino-4-(2-fluoro-4-trifluoromethyl-phenyl)-[1,2,3]-triazol-1-ylmethyl]-phenol]: the melting point fell in the range of 168.2 to 169.5 °C.

The term melting point denotes the temperature of the solid-liquid transition. In general, EC50 refers to the concentration needed to bring the measured effect to its halfway point.
